# Source: patent US12678509B2, “Inhibitor of apoptosis (IAP) protein antagonists” (Sanford Burnham Prebys Medical Discovery Institute, priority 2019, dated 2026)
# Like-named read-outs stand apart in the source and are kept apart here.
# Key:
# ML-IAP = target: T1, ML-IAP (Homo sapiens, UniProt Q96CA5); assay: Fluorescence polarization assay; type: binding; conditions: SMAC-FITC probe, Ki calculated from IC50
# T1 sequence (Q96CA5 1-298): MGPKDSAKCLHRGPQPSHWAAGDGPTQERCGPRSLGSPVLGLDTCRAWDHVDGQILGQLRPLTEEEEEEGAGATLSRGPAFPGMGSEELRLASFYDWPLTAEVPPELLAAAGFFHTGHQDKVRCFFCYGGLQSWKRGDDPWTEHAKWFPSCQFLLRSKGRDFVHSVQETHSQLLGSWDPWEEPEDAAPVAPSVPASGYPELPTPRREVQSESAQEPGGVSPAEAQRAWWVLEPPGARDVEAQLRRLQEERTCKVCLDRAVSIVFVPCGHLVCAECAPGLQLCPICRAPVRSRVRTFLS
# Summary of the method: (§1)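 Competitive FP with 50 nM SMAC-FITC probe in 100 mM KH2PO4 pH 7.5, 50 μM ZnSO4, 1 mM TCEP; cIAP1 and XIAP at 800 nM, cIAP2 and ML-IAP at 1.5 μM. Compounds 30 μM to 1.5 nM in 3-fold steps; ex 485/em 535 nm. IC50 by nonlinear fit, converted to Ki via Nikolovska-Coleska equation.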
# BIR3 domain of XIAP = BIR3 domain of XIAP (Homo sapiens, UniProt P98170); assay: Fluorescence polarization assay; type: binding; conditions: SMAC-FITC probe, Ki calculated from IC50
# Chain of BIR3 domain of XIAP (P98170 241-356 limits assumed): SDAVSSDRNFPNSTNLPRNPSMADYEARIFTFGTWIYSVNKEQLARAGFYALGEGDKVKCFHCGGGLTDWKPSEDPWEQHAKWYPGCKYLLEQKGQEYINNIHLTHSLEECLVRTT
# Summary of the method: as §1
# BIR3 domain of cIAP1 = BIR3 domain of cIAP1 (Homo sapiens, UniProt Q13490); assay: Fluorescence polarization assay; type: binding; conditions: SMAC-FITC probe, Ki calculated from IC50
# Chain of BIR3 domain of cIAP1 (Q13490 253-363 limits assumed): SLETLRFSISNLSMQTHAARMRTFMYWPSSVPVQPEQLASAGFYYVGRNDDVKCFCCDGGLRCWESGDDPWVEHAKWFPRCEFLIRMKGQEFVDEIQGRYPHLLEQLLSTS
# Summary of the method: as §1
# BIR3 domain of cIAP2 = BIR3 domain of cIAP2 (Homo sapiens, UniProt Q13489); assay: Fluorescence polarization assay; type: binding; conditions: SMAC-FITC probe, Ki calculated from IC50
# Chain of BIR3 domain of cIAP2 (Q13489 238-349 limits assumed): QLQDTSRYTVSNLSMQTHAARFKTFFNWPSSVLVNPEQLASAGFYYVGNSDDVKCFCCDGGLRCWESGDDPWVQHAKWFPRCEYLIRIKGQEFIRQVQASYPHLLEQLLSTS
# Summary of the method: as §1
# [1] = system: cIAP1 degradation and p100 cleavage in JLat 10.6 cells; assay: cIAP1 degradation and p100 cleavage (western blot) with GFP expression; type: cell-based; conditions: 24 hours, different concentrations (FIG. 4)
# Method: JLat 10.6 cells were treated with different concentrations of compound 18a for 24 hours. GFP expression indicating latency reversal was measured by flow cytometry. cIAP1 degradation and p100 cleavage were assessed by western blot using the antibodies AF8181 (R&D Systems) and #4882 (Cell Signaling Technology), respectively.
# resting CD4+ T cells = assay: T cell activation (CD69 and CD25 expression, flow cytometry); type: cell-based; conditions: resting CD4+ T cells of healthy human donors (FIG. 2)
# Method: Compound 18a was also tested for its impact on T cell activation and cytokine release. Peripheral blood mononuclear cells (PBMC) were isolated by Ficoll density gradient centrifugation (Histopaque, Sigma Aldrich) from buffy coats of three healthy human donors (San Diego Blood Bank). Resting CD4^+ T cells were subsequently isolated by negative selection using magnetic beads (Miltenyi Biotec). Cells were treated with compound 18a, or 50 ng/ml Phorbol myristate acetate (PMA) and 1 μM lonomycin, or Dynabeads Human T-Activator CD3/CD28 (ThermoFisher Scientific) at a bead-to-cell ratio of 1:1, or left untreated. Expression of the early and late activation markers CD69 and CD25 on CD4+ T cells was assessed by flow cytometry using a Phycoerythrin-labeled anti-CD69 antibody (BioLegend; Cat #310906) and an Allophycocyanin-labeled anti-CD25 antibody (BioLegend; Cat #302610). Cytokine expression levels in cultures of PBMC or resting CD4+ T cells were analyzed using the LEGENDplex Human Inflammation Panel 13-plex (BioLegend).
# [2] = Pharmacokinetic study in mice, snapshot PK; type: in vivo; conditions: female, C57BL/6J, mouse, plasma, ip, one hour after i.p. injection of 10 mg/kg
# Method: All animal procedures were approved by the Sanford Burnham Prebys Medical Discovery Institute Institutional Animal Care and Use Committee and were performed according to the NIH guidelines for the Care and Use of Laboratory Animals. Adult female C57BL/6J were purchased from JAX laboratories and housed with free access to food and water on a 12 h light/dark cycle. Compounds were formulated in 5% DMSO, 10% Tween-80, and 85% dH2O and injected intraperitoneally (i.p.) into mice at doses of 10 mg/kg. For snapshot PK analysis, blood samples were collected retro-orbitally one hour after injection and for the time course PK study, blood samples were collected at 15 min, 30 min, 1 h, 2 h, 4 h, 6 h, 24 h time points. For the blood samples plasma was separated by centrifugation. Plasma samples were extracted with acetonitrile:water 4:1 with 0.1% formic acid containing indometacin as an internal standard. Samples were centrifuged and supernatants were diluted with acetonitrile:water and analyzed via LC-MS/MS on a Shimadzu Nexera X2 HPLC coupled to an AB Sciex 6500 QTRAP.
# Plasma exposure of selected compounds at 1 h compared.
# Plasma levels of parent compound determined one hour after i.p. injection of 10 mg/kg
# MOLM 13 = assay: Cell viability (CellTiter-Glo), 6-day compound treatment; type: cell-based, Human; conditions: for IC50: Homo sapiens, MOLM-13, 144 h
# Summary of the method: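 Cells plated at 1700 per well, left overnight at 37° C./5% CO2, then exposed to 10-fold compound dilutions for 6 days […]. Viability by CellTiter-Glo luminescence; IC50 from nonlinear regression fit.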
compound,measurement,setting,value
"CN[C@@H](C)C(=O)N[C@H]1CCS[C@H]2CC(C)(C)[C@@H](C(=O)N[C@H]3c4ccccc4C[C@H]3OCC#CC#CCO[C@@H]3Cc4ccccc4[C@@H]3NC(=O)[C@H]3N4C(=O)[C@@H](NC(=O)[C@H](C)NC)CCS[C@H]4CC3(C)C)N2C1=O [Compound 18a, (2S)-1-{[(4S,7S,9aS)-74{(1S,2R)-2-[(6-{[(1S,2R)-1-({[(4S,7S,9aS)-8,8-Dimethyl-4-{[(2S)-2-(methylammonio)propanoyl]amino}-5-oxooctahydropyrrolo[2,1-b][1,3]thiazepin-7-yl]carbonyl}amino)-2,3-dihydro-1H-inden-2-yl]oxy}hexa-2,4-diyn-1-yl)oxy]-2,3-dihydro-1H-inden-1-yl}carbamoyl)-8,8-dimethyl-5-oxooctahydropyrrolo[2,1-b][1,3]thiazepinyl]amino}-N-methyl-1-oxopropan-2-ammonium dichloride]",Ki,ML-IAP,50 to 100 nM
same,Ki,BIR3 domain of XIAP,≤ 50 nM
same,Ki,BIR3 domain of cIAP1,≤ 50 nM
same,Ki,BIR3 domain of cIAP2,50 to 100 nM
same,cIAP1 degradation and p100 cleavage,[1],correlated with HW latency reversal
same,"activation of resting CD4+ T cells (CD69, CD25)",resting CD4+ T cells,did not induce activation of resting CD4+ T cells
same,concentration at 1 h,[2],3.52 µM
same,IC50,MOLM 13; read-out: IC50 6 d,10 to 100 nM
same,IC50,MOLM 13; read-out: MOLM 13 Viability 6 d IC50,10 to 100 nM
same,Cell viability at max. concentration,"MOLM 13; MOLM 13, 6 d",I (I<10%)
